# Compound: C1=CC2=NC=CN=C2C=C1/C=C/3\C(=O)NC(=O)S3 + CC(C)C[C@H](NC(=O)[C@H](Cc1ccccc1)NC(=O)c1cnccn1)B(O)O [Bortezomib] (partner 0.002 µM)
# Experiment: relative viability (nuclei count vs DMSO), 5 days (fraction); higher = more cells survive
# Conditions: first compound 0.02 µM
# Procedure, shortened: (§1)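 Lung cancer cell lines were seeded in 1536-well plates and dosed by pin tool the next day, with either a single drug or a fixed anchor-drug dose combined with five library-drug doses (not always all listed) spaced in √10 steps. Five days later, one step fixed the cells and stained their nuclei (final 0.05% Triton X-100, 1% formaldehyde, 1 ug/ml Hoechst), and nuclei were counted on 4× images. Relative viability is the nuclei count in treated wells divided by the count in vehicle wells, and each value is the median of duplicate plates.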
row,Cell Line,relative viability
1,NCI-H727,0.777
2,NCI-H1650,0.207
3,EBC-1,0.538
4,NCI-H1703,0.288
5,NCI-H1993,0.892
6,SW 1573,0.996
7,NCI-H838,0.711
8,LCLC-103H,1.08
9,NCI-H520,0.793
10,NCI-H2126,1.08
11,EMC-BAC-2,1.01
12,NCI-H2085,1.03
13,Calu-6,1.03
14,HCC-366,1
15,NCI-H1666,0.834
16,NCI-H596,1.36
17,NCI-H2087,0.831
18,H3255,0.869
19,COR-L23,0.906
20,COR-L 105,0.717
21,IA-LM,0.654
22,LOU-NH91,0.415
23,ChaGo-K-1,1.05
24,NCI-H1299,1.04
25,CAL-12T,1.05
26,NCI-H2228,0.948
27,NCI-H1563,0.828
28,ABC-1,0.3

# Same assay, conditions: first compound 0.06325 µM
row,Cell Line,relative viability
1,NCI-H727,0.828
2,NCI-H1650,0.173
3,EBC-1,0.648
4,NCI-H1703,0.322
5,NCI-H1993,1.02
6,SW 1573,1.21
7,NCI-H838,0.908
8,LCLC-103H,1.05
9,NCI-H520,0.632
10,NCI-H2126,1.16
11,EMC-BAC-2,1.2
12,NCI-H2085,1.07
13,Calu-6,1.1
14,HCC-366,1.02
15,NCI-H1666,0.854
16,NCI-H596,1.06
17,NCI-H2087,0.942
18,H3255,0.91
19,COR-L23,0.947
20,COR-L 105,0.887
21,IA-LM,0.918
22,LOU-NH91,0.517
23,ChaGo-K-1,1.65
24,NCI-H1299,1.04
25,CAL-12T,1.06
26,NCI-H2228,0.881
27,NCI-H1563,0.788
28,ABC-1,0.263

# Same assay, conditions: first compound 0.2 µM
row,Cell Line,relative viability
1,NCI-H727,0.795
2,NCI-H1650,0.219
3,EBC-1,0.587
4,NCI-H1703,0.38
5,NCI-H1993,1.05
6,SW 1573,1.17
7,NCI-H838,0.878
8,LCLC-103H,1.06
9,NCI-H520,0.538
10,NCI-H2126,1.11
11,EMC-BAC-2,1.02
12,NCI-H2085,1.02
13,Calu-6,1.22
14,HCC-366,1.05
15,NCI-H1666,1.06
16,NCI-H596,1.17
17,NCI-H2087,0.68
18,H3255,0.778
19,COR-L23,0.972
20,COR-L 105,0.864
21,IA-LM,0.865
22,LOU-NH91,0.512
23,ChaGo-K-1,1.16
24,NCI-H1299,1.04
25,CAL-12T,0.921
26,NCI-H2228,1.23
27,NCI-H1563,0.871
28,ABC-1,0.328

# Same assay, conditions: first compound 0.6325 µM
row,Cell Line,relative viability
1,NCI-H727,0.833
2,NCI-H1650,0.201
3,EBC-1,0.546
4,NCI-H1703,0.474
5,NCI-H1993,0.952
6,SW 1573,0.835
7,NCI-H838,0.595
8,LCLC-103H,1
9,NCI-H520,0.489
10,NCI-H2126,1.08
11,EMC-BAC-2,0.997
12,NCI-H2085,0.824
13,Calu-6,1.1
14,HCC-366,1.06
15,NCI-H1666,0.649
16,NCI-H596,0.876
17,NCI-H2087,0.809
18,H3255,0.682
19,COR-L23,0.95
20,COR-L 105,0.759
21,IA-LM,0.788
22,LOU-NH91,0.562
23,ChaGo-K-1,0.952
24,NCI-H1299,1.03
25,CAL-12T,0.97
26,NCI-H2228,1.06
27,NCI-H1563,0.753
28,ABC-1,0.261

# Same assay, conditions: first compound 2 µM
row,Cell Line,relative viability
1,NCI-H727,0.475
2,NCI-H1650,0.213
3,EBC-1,0.816
4,NCI-H1703,0.489
5,NCI-H1993,0.724
6,SW 1573,0.95
7,NCI-H838,0.684
8,LCLC-103H,0.931
9,NCI-H520,0.657
10,NCI-H2126,0.716
11,EMC-BAC-2,0.895
12,NCI-H2085,1.01
13,Calu-6,0.98
14,HCC-366,1.01
15,NCI-H1666,0.673
16,NCI-H2087,0.805
17,H3255,0.741
18,COR-L23,0.941
19,COR-L 105,0.755
20,IA-LM,0.728
21,LOU-NH91,0.513
22,ChaGo-K-1,0.868
23,NCI-H1299,1.06
24,CAL-12T,0.966
25,NCI-H2228,0.82
26,NCI-H1563,0.715
27,ABC-1,0.27

# Compound: CCN1CCN(c2ccc(Nc3cc(N(C)C(=O)Nc4c(Cl)c(OC)cc(OC)c4Cl)ncn3)cc2)CC1 [BGJ398] + C[C@@H](Oc1cc(-c2cnn(C3CCNCC3)c2)cnc1N)c1c(Cl)ccc(F)c1Cl [Crizotinib] (partner 1 µM)
# Experiment: as above
# Conditions: first compound 0.01 µM
# Procedure, shortened: as §1
row,Cell Line,relative viability
1,NCI-H727,0.809
2,NCI-H1650,0.955
3,EBC-1,0.198
4,NCI-H1703,0.694
5,NCI-H1993,0.866
6,SW 1573,0.878
7,NCI-H838,0.804
8,LCLC-103H,1.02
9,NCI-H520,0.829
10,NCI-H2126,1.12
11,EMC-BAC-2,0.726
12,NCI-H2085,0.836
13,Calu-6,0.737
14,HCC-366,0.474
15,NCI-H1666,0.944
16,NCI-H596,0.935
17,LK-2,0.206

row,Cell Line,relative viability
1,NCI-H2087,0.923
2,SK-MES-1,0.944
3,H3255,0.798
4,COR-L23,0.588
5,COR-L 105,0.737
6,IA-LM,0.91
7,LOU-NH91,0.724
8,ChaGo-K-1,1.09
9,NCI-H2170,1.09
10,A549,0.73
11,NCI-H1299,0.94
12,CAL-12T,0.68
13,NCI-H2228,0.433
14,NCI-H1563,0.875
15,NCI-H1944,0.994
16,ABC-1,1.05
17,NCI-H358,0.631

# Same assay, conditions: first compound 0.03162 µM
row,Cell Line,relative viability
1,NCI-H727,0.853
2,NCI-H1650,1.01
3,EBC-1,0.201
4,NCI-H1703,1.17
5,NCI-H1993,0.794
6,SW 1573,0.802
7,NCI-H838,0.837
8,LCLC-103H,1.03
9,NCI-H520,0.72
10,NCI-H2126,1.01
11,EMC-BAC-2,0.816
12,NCI-H2085,0.871
13,Calu-6,0.86
14,HCC-366,0.66
15,NCI-H1666,1.06
16,NCI-H596,0.843
17,LK-2,0.227

row,Cell Line,relative viability
1,NCI-H2087,0.831
2,SK-MES-1,1.05
3,COR-L23,0.826
4,COR-L 105,0.844
5,IA-LM,0.996
6,LOU-NH91,0.506
7,ChaGo-K-1,1.18
8,NCI-H2170,1.22
9,A549,0.811
10,NCI-H1299,0.864
11,CAL-12T,0.796
12,NCI-H2228,0.64
13,NCI-H1563,0.812
14,NCI-H1944,1.07
15,ABC-1,1.36
16,NCI-H358,0.779

# Same assay, conditions: first compound 0.1 µM
row,Cell Line,relative viability
1,NCI-H727,0.795
2,NCI-H1650,0.862
3,EBC-1,0.17
4,NCI-H1703,0.796
5,NCI-H1993,0.912
6,SW 1573,0.773
7,NCI-H838,0.781
8,LCLC-103H,1.03
9,NCI-H520,0.395
10,NCI-H2126,0.997
11,EMC-BAC-2,0.798
12,NCI-H2085,1.05
13,Calu-6,0.948
14,HCC-366,0.768
15,NCI-H1666,0.938
16,NCI-H596,0.883
17,LK-2,0.214

row,Cell Line,relative viability
1,NCI-H2087,0.865
2,SK-MES-1,1
3,H3255,0.877
4,COR-L23,0.598
5,COR-L 105,0.879
6,IA-LM,0.657
7,LOU-NH91,0.688
8,ChaGo-K-1,1.21
9,NCI-H2170,1.29
10,A549,0.758
11,NCI-H1299,0.951
12,CAL-12T,0.548
13,NCI-H2228,0.319
14,NCI-H1563,0.846
15,NCI-H1944,1.13
16,ABC-1,1.19
17,NCI-H358,0.533

# Same assay, conditions: first compound 0.3162 µM
row,Cell Line,relative viability
1,NCI-H727,0.857
2,NCI-H1650,0.879
3,EBC-1,0.199
4,NCI-H1703,0.638
5,NCI-H1993,0.959
6,SW 1573,0.808
7,NCI-H838,0.782
8,LCLC-103H,0.96
9,NCI-H520,0.456
10,NCI-H2126,0.955
11,EMC-BAC-2,0.746
12,NCI-H2085,0.892
13,Calu-6,0.745
14,HCC-366,0.627
15,NCI-H1666,1.3
16,NCI-H596,0.944
17,LK-2,0.224

row,Cell Line,relative viability
1,NCI-H2087,0.911
2,SK-MES-1,0.942
3,H3255,0.634
4,COR-L23,0.762
5,COR-L 105,0.86
6,IA-LM,0.908
7,LOU-NH91,0.569
8,ChaGo-K-1,0.991
9,NCI-H2170,1.25
10,A549,0.843
11,NCI-H1299,0.969
12,CAL-12T,0.811
13,NCI-H2228,0.252
14,NCI-H1563,0.794
15,NCI-H1944,1.09
16,ABC-1,0.925
17,NCI-H358,0.574

# Same assay, conditions: first compound 1 µM
row,Cell Line,relative viability
1,NCI-H727,0.711
2,NCI-H1650,0.937
3,EBC-1,0.197
4,NCI-H1703,0.863
5,NCI-H1993,0.922
6,SW 1573,0.767
7,NCI-H838,0.652
8,LCLC-103H,0.827
9,NCI-H520,0.281
10,NCI-H2126,1.05
11,EMC-BAC-2,0.669
12,NCI-H2085,1.01
13,Calu-6,0.781
14,HCC-366,0.59
15,NCI-H1666,0.96
16,NCI-H596,0.794
17,LK-2,0.231

row,Cell Line,relative viability
1,NCI-H2087,0.863
2,SK-MES-1,0.967
3,H3255,0.829
4,COR-L23,0.653
5,COR-L 105,0.819
6,IA-LM,0.793
7,LOU-NH91,0.728
8,ChaGo-K-1,1.05
9,NCI-H2170,1.31
10,A549,0.783
11,NCI-H1299,0.97
12,CAL-12T,0.631
13,NCI-H2228,0.347
14,NCI-H1563,0.728
15,NCI-H1944,1.19
16,ABC-1,1.42
17,NCI-H358,0.722

# Compound: C1=CC2=NC=CN=C2C=C1/C=C/3\C(=O)NC(=O)S3 + Nc1ncn([C@H]2C[C@H](O)[C@@H](CO)O2)c(=O)n1 [Decitabine] (partner 2 µM)
# Experiment: as above
# Conditions: first compound 0.02 µM
# Procedure, shortened: as §1
row,Cell Line,relative viability
1,NCI-H522,0.643
2,NCI-H727,0.891
3,NCI-H1650,0.425

# — the supplement of paper PMC10307832
